We go through eight compounds from US20240124460A1, “METHODS AND COMPOSITIONS FOR TARGETED PROTEIN DEGRADATION” (Ranok Therapeutics (Hangzhou) Co. Ltd., priority 2020, published 2024).

The test system of assay [1] is U-87 MG human glioblastoma. The assay is described as follows: U87 MG CCK-8 proliferation assay. It counts as cell-based. Conditions: U-87 MG cells, read-out: U87MG CCK-8. A digest of the protocol:
(§1)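 Inhibition is derived from CCK-8 absorbance of compound-treated cells relative to DMSO-treated cells, after subtracting a cell-free medium/DMSO background. Test concentrations span 20 μM down to 1.02 nM in 3-fold steps, and lines are cultured as ATCC recommends.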
(In general: Tetrazolium dyes change colour on reduction, which living cells bring about.)

In assay [2] the target is T1, MAPK7 (Homo sapiens, UniProt Q13164). The assay is described as follows: MAPK7 kinase assay (ADP-Glo). The arrangement: purchased Carna Biosciences #04-146. The note with it: ATP 340 μM. Type of assay: biochemical. The protocol: The inhibition of MAPK7 kinase activity by test compounds was measured by the ADP-Glo Kinase Assay (Promega, #V6930), following the manufacturer's instructions, except as noted. 3-fold serial dilutions of each test compound were prepared ranging from 50 μM to 2.54 nM. Also, as a positive control, a 4-fold serial dilution of the MAPK7 inhibitor, XMD17-109 (MedChemExpress, #HY-15665) was prepared ranging from 10 μM to 0.04 nM. In brief, in 384-well plates, test compounds were added to the kinase reaction mix containing recombinant MAPK7 protein (Carna Biosciences, #04-146; 20 nM final concentration), myelin basic protein (SignalChem Biotech, #M42-54G; 0.1 mg/ml final concentration) and ATP (340 μM final concentration), then mixed by shaking and incubated with ADP-Glo Reagent and Kinase Detection Reagent. Luminescence was measured on a BioTek plate reader.
T1 sequence (Q13164 whole entry): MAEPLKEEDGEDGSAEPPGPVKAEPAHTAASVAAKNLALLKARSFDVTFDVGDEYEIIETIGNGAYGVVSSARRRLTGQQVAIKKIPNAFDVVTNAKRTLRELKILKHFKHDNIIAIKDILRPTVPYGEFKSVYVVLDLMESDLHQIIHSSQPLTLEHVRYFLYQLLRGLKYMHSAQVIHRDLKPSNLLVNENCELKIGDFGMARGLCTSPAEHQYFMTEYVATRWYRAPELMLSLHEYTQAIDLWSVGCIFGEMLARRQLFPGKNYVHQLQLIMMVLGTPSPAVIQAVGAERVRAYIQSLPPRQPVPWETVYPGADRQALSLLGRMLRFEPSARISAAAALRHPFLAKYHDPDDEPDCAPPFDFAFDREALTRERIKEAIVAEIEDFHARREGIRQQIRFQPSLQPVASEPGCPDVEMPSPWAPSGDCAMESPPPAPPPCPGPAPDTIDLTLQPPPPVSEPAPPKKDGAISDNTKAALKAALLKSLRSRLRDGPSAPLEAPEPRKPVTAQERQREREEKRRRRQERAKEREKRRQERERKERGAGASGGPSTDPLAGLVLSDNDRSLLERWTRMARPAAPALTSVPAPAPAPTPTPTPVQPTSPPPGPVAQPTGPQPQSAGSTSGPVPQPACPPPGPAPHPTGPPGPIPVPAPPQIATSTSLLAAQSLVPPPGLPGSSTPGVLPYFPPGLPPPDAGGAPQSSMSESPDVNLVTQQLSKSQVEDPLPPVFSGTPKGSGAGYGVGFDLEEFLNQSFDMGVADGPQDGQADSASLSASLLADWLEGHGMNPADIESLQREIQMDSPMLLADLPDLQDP
Lumpositive: The average ratio for 10 wells of positive controls (10 μM XMD17-109) across the plate.
Lumvehicle: The average ratio for 10 wells of negative controls (0.5% DMSO) across the plate.

Assay [3] relates to MV-4-11 human acute myeloid leukemia. The assay is described as follows: MV-4-11 CCK-8 proliferation assay. The note with it: MV-4-11 cells, 72 hr. It counts as cell-based. In a few lines:
as §1

The target of assay [4] is T2, HSP90α protein (Homo sapiens, UniProt P07900).
T2 construct: purchased BPS Bioscience #50298
The assay is described as follows: HSP90α-binding FP (BODIPY) assay. Conditions: FP competition with BODIPY-labeled RNK04010. A digest of the protocol: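 Fluorescence polarization measured competition with N-terminal human HSP90α, using either FITC-geldanamycin or BODIPY-labelled triazolone RNK04010 as tracer (5 nM final each). Compounds were tested in 2.5-fold dilutions from 20 μM to 5.2 nM, with incubation at 25 °C for 120 min (FITC) or 300 min (BODIPY).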

Assay [5] concerns ERBB2. The assay is described as follows: ERBB2 (HER2) flow cytometry protein degradation assay in BT-474 cells. It counts as cell-based, human. Conditions: DC50, BT-474 cells, 24 hr. In a few lines: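 BT-474 cells trypsinised after compound treatment and stained with PE-conjugated anti-ERBB2 antibody, 30 min at 25° C in the dark, then fixed in 1% paraformaldehyde for flow cytometry. % inhibition = 100−(D−B)/(S−B)*100, using treated, untreated-stained and unstained cell fluorescence.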
For orientation: Flow cytometry measures light scatter and fluorescence of single cells or particles in a stream.

Assay [6] addresses T1, MAPK7. The assay is described as follows: MAPK7 Western blot protein degradation assay in U-87 MG cells. It counts as cell-based. Also on record: U-87 MG human glioblastoma cells, which express MAPK7; endogenous in cells; host or cells: U-87 MG. Conditions: 48 hr. In a few lines:
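U-87 MG glioblastoma cells treated with compounds at various concentrations for 48 h at 37 °C. MAPK7 (ERK5) levels in protein-normalized lysates measured by Western blot with β-actin as loading reference, quantified by fluorescence imaging.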

For orientation: IC50 means the concentration at which inhibition is half-maximal. Low values mean greater potency, high ones weaker potency.

The structures appear in SMILES notation. Where two headings read alike, the source gives them in different places.

`CCOc1cc(N2CCC(C(=O)N3CCC(CN4CCN(Cc5ccc(-n6c(C(=O)NC(C)C(F)(F)F)nnc6-c6cc(CC)c(O)cc6O)cc5)CC4)CC3)CC2)ccc1N(CC)c1ncc2c(n1)N(S(C)(=O)=O)c1ccccc1C(=O)N2C` (centres unmarked) [Compound 115, 4-(4-((4-((1-(1-(3-ethoxy-4-(ethyl(5-methyl-11-(methylsulfonyl)-6-oxo-6,11-dihydro-5H-benzo[e]pyrimido[5,4-b][1,4]diazepin-2-yl)amino)phenyl)piperidine-4-carbonyl)piperidin-4-yl)methyl)piperazin-1-yl)methyl)phenyl)-5-(5-ethyl-2,4-dihydroxyphenyl)-N-(1,1,1-trifluoropropan-2-yl)-4H-1,2,4-triazole-3-carboxamide]: the EC50 in assay [1] (Homo sapiens, U-87 MG, 72 h) is 100 to 1000 nM; in assay [3] (Homo sapiens, MV4-11), < 100 nM. The IC50 in assay [2] was > 1000 nM; in assay [4], 100 to 1000 nM. For the same compound, the ERBB2 degradation result in assay [5] is “B (DC50 = 100-1000 nM)”.

`CCNC(=O)c1nnc(-c2cc(CC)c(O)cc2O)n1-c1ccc(CN2CCN(CC3CCN(C(=O)C4CCN(c5ccc(Nc6ncc7c(n6)N(S(C)(=O)=O)c6ccccc6C(=O)N7C)c(OCC)c5)CC4)CC3)CC2)cc1.Cl` [Compound 096, 4-(4-((4-((1-(1-(3-ethoxy-4-((5-methyl-11-(methylsulfonyl)-6-oxo-6,11-dihydro-5H-benzo[e]pyrimido[5,4-b][1,4]diazepin-2-yl)amino)phenyl)piperidine-4-carbonyl)piperidin-4-yl)methyl)piperazin-1-yl)methyl)phenyl)-N-ethyl-5-(5-ethyl-2,4-dihydroxyphenyl)-4H-1,2,4-triazole-3-carboxamide]: the EC50 is < 100 nM in assay [1] (Homo sapiens, U-87 MG, 72 h) and < 100 nM in assay [3] (Homo sapiens, MV4-11). Moreover, the IC50 in assay [2] and in assay [4] was < 100 nM each time. For the same compound, the ERBB2 degradation result in assay [5] is on record as “B (DC50 = 100-1000 nM)”.

Turning to `CCOc1cc(N2CCC(C(=O)N3CCC(N4CCN(Cc5ccc(-n6c(O)nnc6-c6cc(C(C)C)c(O)cc6O)cc5)CC4)CC3)CC2)ccc1Nc1ncc2c(n1)N(C)c1ccccc1C(=O)N2C.Cl` [Compound 042, 2-((4-(4-(4-(4-(4-(3-(2,4-dihydroxy-5-isopropylphenyl)-5-hydroxy-4H-1,2,4-triazol-4-yl)benzyl)piperazin-1-yl)piperidine-1-carbonyl)piperidin-1-yl)-2-ethoxyphenyl)amino)-5,11-dimethyl-5H-benzo[e]pyrimido[5,4-b][1,4]diazepin-6(11H)-one], the EC50 in assay [1] (72 hr) and in assay [3] was < 100 nM in each case. The results for the IC50 in assay [2] and in assay [4] were > 1000 nM and < 100 nM, respectively. Moreover, in assay [5], the ERBB2 degradation result is recorded as “B (DC50 = 100-1000 nM)”.

In the case of `CCOc1cc(N2CCC(C(=O)N3CCN(Cc4ccc(-n5c(O)nnc5-c5cc(C(C)C)c(O)cc5O)cc4)CC3)CC2)ccc1N(C)c1ncc2c(n1)N(C)c1ccccc1C(=O)N2C` [Compound 047, 2-((4-(4-(4-(4-(3-(2,4-dihydroxy-5-isopropylphenyl)-5-hydroxy-4H-1,2,4-triazol-4-yl)benzyl)piperazine-1-carbonyl)piperidin-1-yl)-2-ethoxyphenyl)(methyl)amino)-5,11-dimethyl-5,11-dihydro-6H-benzo[e]pyrimido[5,4-b][1,4]diazepin-6-one], the EC50 in assay [1] (Homo sapiens, U-87 MG, 72 h) is 100 to 1000 nM; in assay [3] (Homo sapiens, MV4-11), < 100 nM. Also, the IC50 in assay [2] is > 1000 nM; in assay [4] it was 100 to 1000 nM. The ERBB2 degradation result in assay [5] is listed as “B (DC50 = 100-1000 nM)”.

As to `CCOc1cc(N2CCC(C(=O)NCCOCCNC(=O)O[C@H]3CC[C@H](Nc4cc(-n5nc(C(F)(F)F)c6c5CC(C)(C)CC6=O)ccc4C(N)=O)CC3)CC2)ccc1Nc1ncc2c(n1)N(S(C)(=O)=O)c1ccccc1C(=O)N2C` [Compound 105, (1R,4R)-4-((2-carbamoyl-5-(6,6-dimethyl-4-oxo-3-(trifluoromethyl)-4,5,6,7-tetrahydro-1H-indazol-1-yl)phenyl)amino)cyclohexyl (2-(2-(1-(3-ethoxy-4-((5-methyl-11-(methylsulfonyl)-6-oxo-6,11-dihydro-5H-benzo[e]pyrimido[5,4-b][1,4]diazepin-2-yl)amino)phenyl)piperidine-4-carboxamido)ethoxy)ethyl)carbamate], the EC50 in assay [1] (Homo sapiens, U-87 MG, 72 h) was > 1000 nM; in assay [3] (Homo sapiens, MV4-11), 100 to 1000 nM. The IC50 in assay [2] and in assay [4] was > 1000 nM throughout. In addition, in assay [5], the ERBB2 degradation entry is on record as “C (DC50 > 1000 nM)”.

`CCOc1cc(N2CCC(C(=O)N3CCC(CN4CCN(Cc5ccc(-n6c(O)nnc6-c6cc(C(C)C)c(O)cc6O)cc5)CC4)CC3)CC2)ccc1N(CC)c1ncc2c(n1)N(S(C)(=O)=O)c1ccccc1C(=O)N2C` [Compound 099, 2-((4-(4-(4-((4-(4-(3-(2,4-dihydroxy-5-isopropylphenyl)-5-hydroxy-4H-1,2,4-triazol-4-yl)benzyl)piperazin-1-yl)methyl)piperidine-1-carbonyl)piperidin-1-yl)-2-ethoxyphenyl)(ethyl)amino)-5-methyl-11-(methylsulfonyl)-5,11-dihydro-6H-benzo[e]pyrimido[5,4-b][1,4]diazepin-6-one]: the EC50 in assay [1] (Homo sapiens, U-87 MG, 72 h) was < 100 nM; in assay [3] (Homo sapiens, MV4-11), < 100 nM. For the same compound, the IC50 in assay [2] is > 1000 nM; in assay [4] it was < 100 nM. For the same compound, in assay [5], the ERBB2 degradation result is given as “B (DC50 = 100-1000 nM)”.

Consider `CCOc1cc(N2CCC(C(=O)NCCOCCNC(=O)O[C@H]3CC[C@H](Nc4cc(-n5nc(C(F)(F)F)c6c5CC(C)(C)CC6=O)ccc4C(N)=O)CC3)CC2)ccc1Nc1ncc2c(n1)N(C)c1ccccc1C(=O)N2C` [Compound 103, (1R,4R)-4-((2-carbamoyl-5-(6,6-dimethyl-4-oxo-3-(trifluoromethyl)-4,5,6,7-tetrahydro-1H-indazol-1-yl)phenyl)amino)cyclohexyl (2-(2-(1-(4-((5,11-dimethyl-6-oxo-6,11-dihydro-5H-benzo[e]pyrimido[5,4-b][1,4]diazepin-2-yl)amino)-3-ethoxyphenyl)piperidine-4-carboxamido)ethoxy)ethyl)carbamate], for which the EC50 was > 1000 nM in assay [1] (Homo sapiens, U-87 MG, 72 h) and 100 to 1000 nM in assay [3] (Homo sapiens, MV4-11). The IC50 in assay [2] and in assay [4] was > 1000 nM throughout. Moreover, in assay [5], the ERBB2 degradation entry is “C (DC50 > 1000 nM)”.

On to `CCOc1cc(N2CCC(C(=O)N3CCC(CN4CCN(Cc5ccc(-n6c(O)nnc6-c6cc(C(C)C)c(O)cc6O)cc5)CC4)CC3)CC2)ccc1Nc1ncc2c(n1)N(C)c1ccccc1C(=O)N2C.Cl` [Compound 032, 2-((4-(4-(4-((4-(4-(3-(2,4-dihydroxy-5-isopropylphenyl)-5-hydroxy-4H-1,2,4-triazol-4-yl)benzyl)piperazin-1-yl)methyl)piperidine-1-carbonyl)piperidin-1-yl)-2-ethoxyphenyl)amino)-5,11-dimethyl-5,11-dihydro-6H-benzo[e]pyrimido[5,4-b][1,4]diazepin-6-one], for which the EC50 in assay [1] (Homo sapiens, U-87 MG, 72 h) was 100 to 1000 nM; in assay [3] (Homo sapiens, MV4-11), < 100 nM. Further, the figures for the IC50 in assay [2] and in assay [4] were > 1000 nM and < 100 nM, respectively. In assay [6] (30 nM), the “MAPK7 degradation (30 nM)” value was “C (< 33% degradation)”. Moreover, in assay [6] (100 nM), the “MAPK7 degradation (100 nM)” value was “B (33-66% degradation)”. In addition, in assay [6] (300 nM), the “MAPK7 degradation (300 nM)” value is given as “A (>66% degradation)”. In assay [6] (1000 nM), the “MAPK7 degradation (1000 nM)” value is on record as “A (>66% degradation)”. The ERBB2 degradation result in assay [5] is given as “B (DC50 = 100-1000 nM)”.
